In patent US11534457B2, “Use of dextran sulfate” (priority 2017, dated 2022):

Test system: severe traumatic brain injury (sTBI)
Experiment: sTBI in rats, brain gene expression arrays and pathway analysis (Example 9)
Format: in vivo, Male Wistar rats
Set-up: key to z score, canonical pathway Dendritic Cell Maturation / z score, canonical pathway Adrenomedullin Signaling pathway / z score, canonical pathway Endothelin-1 Signaling / effect on canonical pathway Adrenomedullin Signaling pathway / effect on canonical pathway Endothelin-1 Signaling / effect on canonical pathway Dendritic Cell Maturation / Ingenuity canonical pathway Adrenomedullin signaling pathway, z score / Ingenuity canonical pathway FLT3 Signaling in Hematopoietic Progenitor Cells, z score / Ingenuity canonical pathway Opioid Signaling Pathway, z score / Ingenuity canonical pathway VDR/RXR Activation, z score / Ingenuity canonical pathway Neuropathic Pain Signaling In Dorsal Horn Neurons, z score / Ingenuity canonical pathway STAT3 Pathway, z score / Ingenuity canonical pathway IL-1 Signaling, z score / Ingenuity canonical pathway IL-6 Signaling, z score / Ingenuity canonical pathway NF-κB Signaling, z score / Ingenuity canonical pathway Role of NFAT in Cardiac Hypertrophy, z score / Ingenuity canonical pathway PPARα/RXRα Activation, z score: *: ambiguous effect
Method: The experimental protocol used in this study was approved by the Ethical Committee of the Catholic University of Rome, according to international standards and guidelines for animal care. Male Wistar rats of 300-350 g body weight were fed with standard laboratory diet and water ad libitum in a controlled environment. As the anesthetic mixture, the animals received 35 mg/kg b.w. ketamine and 0.25 mg/kg body weight midazolam by i.p. injection. Severe traumatic brain injury (sTBI) was induced by dropping a 450 g weight from 2 m height on to the rat head that had been protected by a metal disk previously fixed on the skull, according to the “weight drop” impact acceleration model (Marmarou et al., A new model of diffuse brain injury in rats. Part I: Pathophysiology and biomechanics. J Neurosurg. 1994; 80: 291-300). […] At the end of each period of treatment, rats were anesthetized again and then immediately sacrificed.
LMW-DS (Tikomed AB) was provided at a stock concentration of 20 mg/ml and was kept in a temperature-monitored refrigerator at 4° C. LMW-DS aliquots were diluted to the appropriate dosing concentration in sterile saline prior to delivery of a single subcutaneous injection.
Three doses of LMW-DS were administered subcutaneously 30 minutes post-TBI. The animals were sacrificed at 2 days post-TBI. The animals were divided into the following subgroups:
Three doses of LMW-DS were administered subcutaneously 30 minutes post-TBI. The animals were sacrificed at 7 days post-TBI. The animals were divided into the following subgroups:
An in vivo craniectomy was performed on all animals during anesthesia. After carefully removing the rat's skull, the brain was exposed and removed with a surgical spatula and quickly dropped in RNALater and preserved at 4° C. for further processing.
RNA extraction and array processing was carried out by SourceBioscience. The arrays used were the Agilent Rat expression arrays.
Statistical analysis was carried out using the Metaboanalyst software package. Gene expression changes of 10% with a p<0.05 were regarded as significant.
Pathway analysis of the differentially regulated genes was carried out using the Ingenuity pathway analysis package. The analysis was performed with special reference to pathways and molecular processes and diseases associated with neurodegenerative disease, including dementia, Alzheimer's disease, ALS, TBI and stroke, and with scarring and fibrosis, including glaucoma and normal pressure hydrocephalus (NPH) after subarachnoid haemorrhage.

[1] = TBI + 5 mg/kg LMW-DS, after 7 days, TBI: Inhibited
[2] = TBI + 15 mg/kg LMW-DS, 2 days after TBI
[3] = TBI + 15 mg/kg LMW-DS, 7 days after TBI
[4] = TBI + 15 mg/kg LMW-DS, 7 days after TBI, relative to control
[5] = TBI + 15 mg/kg LMW-DS, after 7 days, TBI: Activated
[6] = TBI + 15 mg/kg LMW-DS, after 7 days, TBI: Inhibited
[7] = TBI + 15 mg/kg repeat dose LMW-DS, after 7 days, TBI: Activated
[8] = TBI + 15 mg/kg repeat dose LMW-DS, after 7 days, TBI: Inhibited

low molecular weight dextran sulfate [LMW-DS]
0.152: z score: Tumorigenesis of epithelial neoplasm [3]
Activated: Diseases or functions annotation: Organization of cytoskeleton [1] | Diseases or functions annotation: Pelvic tumor [1] | Diseases or functions annotation: Quantity of cells [1] | Diseases or functions annotation: Quantity of connective tissue [1] | Diseases or functions annotation: Secretion of molecule [1] | Diseases or functions annotation: Size of body [1] | Diseases or functions annotation: Solid tumor [1] | Diseases or functions annotation: Synthesis of lipid [1] | Diseases or functions annotation: Transcription [1] | Diseases or functions annotation: Transcription of RNA [1] | Diseases or functions annotation: Transport of molecule [1] | Diseases or functions annotation: Vasculogenesis [1] | Diseases or functions annotation: Apoptosis of tumor cell lines [2] | Ingenuity canonical pathway: Endothelin-1 Signaling [3] | Ingenuity canonical pathway: Phospholipase C Signaling [3] | Ingenuity canonical pathway: cAMP-mediated signaling [3] | Diseases or functions annotation: Apoptosis of tumor cell lines [5] | Diseases or functions annotation: Cell death of tumor cell lines [5] | Diseases or functions annotation: Extracranial solid tumor [5] | Diseases or functions annotation: Necrosis [5] | Diseases or functions annotation: Cancer [6] | Diseases or functions annotation: Carcinoma [6] | Diseases or functions annotation: Cell movement of myeloid cells [6] | Diseases or functions annotation: Development of carcinoma [6] | Diseases or functions annotation: Development of connective tissue cells [6] | Diseases or functions annotation: Differentiation of bone cells [6] | Diseases or functions annotation: Epithelial neoplasm [6] | Diseases or functions annotation: Genitourinary tumor [6] | Diseases or functions annotation: Leukocyte migration [6] | Diseases or functions annotation: Non-melanoma solid tumor [6] | Diseases or functions annotation: Quantity of cells [6] | Diseases or functions annotation: Solid tumor [6] | Diseases or functions annotation: Transcription [6] | Diseases or functions annotation: Transcription of RNA [6] | Diseases or functions annotation: Tumorigenesis of epithelial neoplasm [6] | Diseases or functions annotation: Tumorigenesis of tissue [6] | Diseases or functions annotation: Extracranial solid tumor [7] | Diseases or functions annotation: Obesity [7] | Diseases or functions annotation: Seizure disorder [7] | Diseases or functions annotation: Skin lesion [7] | Diseases or functions annotation: Branching of cells [8] | Diseases or functions annotation: Cell movement [8] | Diseases or functions annotation: Cell-cell contact [8] | Diseases or functions annotation: Concentration of hormone [8] | Diseases or functions annotation: Development of gap junctions [8] | Diseases or functions annotation: Development of neurons [8] | Diseases or functions annotation: Developmental process of synapse [8]
0.992: z score: Solid tumor [3]
1.197: z score: Cell movement of myeloid cells [3]
1.121: z score: Non-melanoma solid tumor [3]
0.903: z score: Differentiation of bone cells [3]
0.991: z score: Quantity of cells [3]
−0.256: z score: Apoptosis [3]
0.747: z score: Transcription [3]
0.517: z score: Transcription of RNA [3]
−0.865: z score: Incidence of tumor [3]
1: Ingenuity canonical pathway Endothelin-1 Signaling, z score [4] | Ingenuity canonical pathway cAMP-mediated signaling, z score [4]
Inhibited: Diseases or functions annotation: Proliferation of connective tissue cells [1] | Diseases or functions annotation: Proliferation of epithelial cells [1] | Diseases or functions annotation: Tumorigenesis of tissue [1] | Diseases or functions annotation: Apoptosis [2] | Diseases or functions annotation: Behavior [2] | Diseases or functions annotation: Cell death [2] | Diseases or functions annotation: Necrosis [2] | Diseases or functions annotation: Quantity of blood cells [2] | Diseases or functions annotation: Quantity of cells [2] | Diseases or functions annotation: Quantity of lymphocytes [2] | Diseases or functions annotation: Apoptosis [5] | Diseases or functions annotation: Cell death [5] | Diseases or functions annotation: Development of malignant tumor [5] | Diseases or functions annotation: Frequency of tumor [5] | Diseases or functions annotation: Incidence of tumor [5] | Diseases or functions annotation: Abdominal neoplasm [6] | Diseases or functions annotation: Digestive organ tumor [7] | Diseases or functions annotation: Gastrointestinal tumor [7] | Diseases or functions annotation: Hematologic cancer [7] | Diseases or functions annotation: Hematopoietic neoplasm [7] | Diseases or functions annotation: Abdominal cancer [8] | Diseases or functions annotation: Abdominal neoplasm [8] | Diseases or functions annotation: Adenocarcinoma [8] | Diseases or functions annotation: Carcinoma [8] | Diseases or functions annotation: Concentration of lipid [8] | Diseases or functions annotation: Dendritic growth/branching [8] | Diseases or functions annotation: Development of connective tissue cells [8]
0.775: z score: Epithelial neoplasm [3]
−1.269: z score: Cell death [3]
0.178: z score: Cell death of tumor cell lines [3]
*: Ingenuity canonical pathway Adrenomedullin signaling pathway, z score [4]
1.474: z score: Extracranial solid tumor [3]
2.365: z score: Leukocyte migration [3]
1.705: z score: Cancer [3]
−0.272: z score: Abdominal neoplasm [3]
−0.774: z score: Development of malignant tumor [3]
0.224: z score: Quantity of Ca^2+ [3]
0.918: z score: Tumorigenesis of tissue [3]
1.067: z score: Carcinoma [3]
0.783: z score: Apoptosis of tumor cell lines [3]
1.746: z score: Genitourinary tumor [3]
2: Ingenuity canonical pathway Phospholipase C Signaling, z score [4]
0.766: z score: Development of connective tissue cells [3]
0.213: z score: Necrosis [3]
−1.519: z score: Frequency of tumor [3]
